Data from patent US11180504B2 (ORCHID PHARMA LTD., priority 2016, dated 2021).
In brackets after ≈: the same amount, converted by molar mass. Read-outs that look alike come from different tables or passages of the source.

Columns and labels:
[1] = tested on: carbapenemase producing K. pneumoniae; assay: MIC by broth micro-dilution (CLSI), carbapenemase producing K. pneumoniae; format: cell-based, Klebsiella pneumoniae; conditions: Klebsiella pneumoniae, ATCCBAA1705, KPC-2 K. pneumoniae ATCC BAA-1705; read-out: MIC
[2] = tested on: carbapenem sensitive Escherichia coli; assay: MIC by broth micro-dilution (CLSI), carbapenem sensitive E. coli; format: cell-based; conditions: Escherichia coli, ATCC25922, ESBL −ve E. coli ATCC25922; read-out: MIC
[3] = tested on: carbapenem sensitive Pseudomonas aeruginosa; assay: MIC by broth micro-dilution (CLSI), carbapenem sensitive P. aeruginosa; format: cell-based; conditions: Pseudomonas aeruginosa, ATCC27853, Meropenem susceptible P. aeruginosa ATCC27853; read-out: MIC
[4] = tested on: methicillin-sensitive Staphylococcus aureus; assay: MIC by broth micro-dilution (CLSI), methicillin-sensitive S. aureus; format: cell-based; conditions: Staphylococcus aureus, MSSA S. aureus ATCC29213, read-out: MIC

Structure (SMILES)	MIC [1] [µg/mL]	MIC [2] [µg/mL]	MIC [3] [µg/mL]	MIC ([4]; ATCC 29213 / MSSA) [µg/mL]	MIC ([4]; ATCC29213|MSSA) [µg/mL]
C[C@@H](NC(=O)Cn1cnnn1)[C@H]1C(=O)N2C(C(=O)O)=C(S[C@@H]3CN[C@H](C(=O)N4C[C@H]5C[C@H](N)C[C@@]5(CO)C4)C3)[C@H](C)[C@H]12 [Example 526, (4R,5S,6R)-6-((R)-1-(2-(1H-tetrazol-1-yl)acetamido)ethyl)-3-((3S,5S)-5-((3aS,5S,6aS)-5-amino-3a-(hydroxymethyl)octahydrocyclopenta[c]pyrrole-2-carbonyl)pyrrolidin-3-ylthio)-4-methyl-7-oxo-1-azabicyclo[3.2.0]hept-2-ene-2-carboxylic acid]	2 (≈ 3.31 µM)	0.25 (≈ 0.414 µM)	1 (≈ 1.66 µM)	4 (≈ 6.63 µM)	–
C[C@@H](NC(=O)Cn1cnnn1)[C@H]1C(=O)N2C(C(=O)O)=C(S[C@@H]3CN[C@H](C(=O)N4C[C@@H]5C[C@@H](N)C[C@]5(CO)C4)C3)[C@H](C)[C@H]12 [Example 529, (4R,5S,6R)-6-((R)-1-(2-(1H-tetrazol-1-yl)acetamido)ethyl)-3-((3S,5S)-5-((3aR,5R,6aR)-5-amino-3a-(hydroxymethyl)octahydrocyclopenta[c]pyrrole-2-carbonyl)pyrrolidin-3-ylthio)-4-methyl-7-oxo-1-azabicyclo[3.2.0]hept-2-ene-2-carboxylic acid]	2 (≈ 3.31 µM)	0.25 (≈ 0.414 µM)	1 (≈ 1.66 µM)	4 (≈ 6.63 µM)	–
C[C@@H](NC(=O)Cn1cnnn1)[C@H]1C(=O)N2C(C(=O)O)=C(S[C@@H]3CN[C@H](C(=O)N4CC5CC(N)CC5C4)C3)[C@H](C)[C@H]12 (stereo partly drawn) [Example 543, (4R,5S,6R)-6-((R)-1-(2-(1H-tetrazol-1-yl)acetamido)ethyl)-3-((3S,5S)-5-(5-aminooctahydrocyclopenta[c]pyrrole-2-carbonyl)pyrrolidin-3-ylthio)-4-methyl-7-oxo-1-azabicyclo[3.2.0]hept-2-ene-2-carboxylic acid]	1 (≈ 1.74 µM)	0.5 (≈ 0.872 µM)	2 (≈ 3.49 µM)	2 (≈ 3.49 µM)	–
C[C@@H](NC(=O)Cn1cnnn1)[C@H]1C(=O)N2C(C(=O)O)=C(S[C@@H]3CN[C@H](C(=O)N4C[C@@H](O)[C@H](NC(=N)N)C4)C3)[C@H](C)[C@H]12 [Example 544, (4R,5S,6R)-6-((R)-1-(2-(1H-tetrazol-1-yl)acetamido)ethyl)-3-((3S,5S)-5-((3R,4R)-3-guanidino-4-hydroxypyrrolidine-1-carbonyl)pyrrolidin-3-ylthio)-4-methyl-7-oxo-1-azabicyclo[3.2.0]hept-2-ene-2-carboxylic acid]	0.5 (≈ 0.845 µM)	0.25 (≈ 0.423 µM)	1 (≈ 1.69 µM)	1 (≈ 1.69 µM)	–
C[C@@H](NC(=O)Cn1cnnn1)[C@H]1C(=O)N2C(C(=O)O)=C(S[C@@H]3CN[C@H](C(=O)N4C[C@H](O)[C@H](NC(=N)N)C4)C3)[C@H](C)[C@H]12 [Example 545, (4R,5S,6R)-6-((R)-1-(2-(1H-tetrazol-1-yl)acetamido)ethyl)-3-((3S,5S)-5-((3R,4S)-3-guanidino-4-hydroxypyrrolidine-1-carbonyl)pyrrolidin-3-ylthio)-4-methyl-7-oxo-1-azabicyclo[3.2.0)hept-2-ene-2-carboxylic acid]	0.5 (≈ 0.845 µM)	0.125 (≈ 0.211 µM)	1 (≈ 1.69 µM)	1 (≈ 1.69 µM)	–
C[C@@H](NC(=O)Cn1cnnn1)[C@H]1C(=O)N2C(C(=O)O)=C(S[C@@H]3CN[C@H](C(=O)N4CC5[C@H](O)[C@H](N)C[C@@]5(CO)C4)C3)[C@H](C)[C@H]12 (stereo partly drawn) [Example 547, (4R,5S,6R)-6-((R)-1-(2-(1H-tetrazol-1-yl)acetamido)ethyl)-3-((3S,5S)-5-((3aS,5R,6S)-5-amino-6-hydroxy-3a-(hydroxymethyl)octahydro-cyclopenta[c]pyrrole-2-carbonyl)pyrrolidin-3-ylthio)-4-methyl-7-oxo-1-azabicyclo-[3.2.0]-hept-2-ene-2-carboxylic acid]	2 (≈ 3.23 µM)	0.5 (≈ 0.807 µM)	2 (≈ 3.23 µM)	4 (≈ 6.45 µM)	–
C[C@@H](NC(=O)Cn1cnnn1)[C@H]1C(=O)N2C(C(=O)O)=C(S[C@@H]3CN[C@H](C(=O)N4C[C@@H](O)[C@H](N)[C@H]4CO)C3)[C@H](C)[C@H]12 [Example 548, (4R,5S,6R)-6-((R)-1-(2-(1H-tetrazol-1-yl)acetamido)ethyl)-3-((3S,5S)-5-((2S,3R,4R)-3-amino-4-hydroxy-2-(hydroxymethyl)pyrrolidine-1-carbonyl)pyrrolidin-3-ylthio)-4-methyl-7-oxo-1-azabicyclo[3.2.0]hept-2-ene-2-carboxylic acid]	1 (≈ 1.73 µM)	0.25 (≈ 0.431 µM)	4 (≈ 6.9 µM)	8 (≈ 13.8 µM)	–
C[C@@H](NC(=O)Cn1cnnn1)[C@H]1C(=O)N2C(C(=O)O)=C(S[C@@H]3CN[C@H](C(=O)N4C[C@H](N)[C@@H](O)[C@H]4CO)C3)[C@H](C)[C@H]12 [Example 549, (4R,5S,6R)-6-((R)-1-(2-(1H-tetrazol-1-yl)acetamido)ethyl)-3-((3S,5S)-5-((2R,3R,4S)-4-amino-3-hydroxy-2-(hydroxymethyl)pyrrolidine-1-carbonyl)pyrrolidin-3-ylthio)-4-methyl-7-oxo-1-azabicyclo[3.2.0]hept-2-ene-2-carboxylic acid]	1 (≈ 1.73 µM)	0.125 (≈ 0.216 µM)	1 (≈ 1.73 µM)	4 (≈ 6.9 µM)	–

Further lines, results first:

MIC [1] [µg/mL]	MIC [2] [µg/mL]	MIC [3] [µg/mL]	MIC ([4]; ATCC 29213 / MSSA) [µg/mL]	MIC ([4]; ATCC29213|MSSA) [µg/mL]	Structure (SMILES)
2 (≈ 3.39 µM)	0.25 (≈ 0.424 µM)	1 (≈ 1.7 µM)	4 (≈ 6.78 µM)	–	C[C@@H](NC(=O)Cn1cnnn1)[C@H]1C(=O)N2C(C(=O)O)=C(S[C@@H]3CN[C@H](C(=O)N4C[C@H]5CNC[C@@]5(CO)C4)C3)[C@H](C)[C@H]12 [Example 524, (4R,5S,6R)-6-((R)-1-(2-(1H-tetrazol-1-yl)acetamido)ethyl)-3-((3S,5S)-5-((3aR,6aR)-3a-(hydroxymethyl)octahydropyrrolo[3,4-c]pyrrole-2-carbonyl)pyrrolidin-3-ylthio)-4-methyl-7-oxo-1-azabicyclo[3.2.0]hept-2-ene-2-carboxylic acid]
2 (≈ 3.39 µM)	0.25 (≈ 0.424 µM)	0.5 (≈ 0.848 µM)	4 (≈ 6.78 µM)	–	C[C@@H](NC(=O)Cn1cnnn1)[C@H]1C(=O)N2C(C(=O)O)=C(S[C@@H]3CN[C@H](C(=O)N4C[C@@H]5CNC[C@]5(CO)C4)C3)[C@H](C)[C@H]12 [Example 525, (4R,5S,6R)-6-((R)-1-(2-(1H-tetrazol-1-yl)acetamido)ethyl)-3-((3S,5S)-5-((3aS,6aS)-3a-(hydroxymethyl)octahydropyrrolo[3,4-c]pyrrole-2-carbonyl)pyrrolidin-3-ylthio)-4-methyl-7-oxo-1-azabicyclo[3.2.0]hept-2-ene-2-carboxylic acid]
2 (≈ 3.32 µM)	0.25 (≈ 0.415 µM)	1 (≈ 1.66 µM)	4 (≈ 6.64 µM)	–	C[C@@H](NC(=O)Cn1cnnn1)[C@H]1C(=O)N2C(C(=O)O)=C(S[C@@H]3CN[C@H](C(=O)N4C[C@H]5C[C@H](N)C[C@@]5(CN)C4)C3)[C@H](C)[C@H]12 [Example 538, (4R,5S,6R)-6-((R)-1-(2-(1H-tetrazol-1-yl)acetamido)ethyl)-3-((3S,5S)-5-((3aR,5S,6aS)-5-amino-3a-(aminomethyl)octahydro-cyclopenta[c]pyrrole-2-carbonyl)pyrrolidin-3-ylthio)-4-methyl-7-oxo-1-azabicyclo[3.2.0]hept-2-ene-2-carboxylic acid]
2 (≈ 3.57 µM)	0.25 (≈ 0.447 µM)	1 (≈ 1.79 µM)	4 (≈ 7.15 µM)	–	C[C@@H](NC(=O)Cn1cnnn1)[C@H]1C(=O)N2C(C(=O)O)=C(S[C@@H]3CN[C@H](C(=O)N4CC5CNCC5C4)C3)[C@H](C)[C@H]12 (stereo partly drawn) [Example 540, (4R,5S,6R)-6-((R)-1-(2-(1H-tetrazol-1-yl)acetamido)ethyl)-4-methyl-3-((3S,5S)-5-(octahydropyrrolo-[3,4-c]pyrrole-2-carbonyl)pyrrolidin-3-ylthio)-7-oxo-1-azabicyclo[3.2.0]hept-2-ene-2-carboxylic acid]
1 (≈ 1.71 µM)	0.25 (≈ 0.427 µM)	1 (≈ 1.71 µM)	2 (≈ 3.41 µM)	–	C[C@@H](NC(=O)Cn1cnnn1)[C@H]1C(=O)N2C(C(=O)O)=C(S[C@@H]3CN[C@H](C(=O)N4CC5C[C@H]6C[C@@]5(CN6)C4)C3)[C@H](C)[C@H]12 (stereo partly drawn) [Example 541, (4R,5S,6R)-6-((R)-1-(2-(1H-tetrazol-1-yl)acetamido)ethyl)-3-((3S,5S)-5-((1R,7S)-3,8-Diaza-tricyclo[5.2.1.01,5]decane-3-carbonyl)pyrrolidin-3-ylthio)-4-methyl-7-oxo-1-azabicyclo[3.2.0]hept-2-ene-2-carboxylic acid]
1 (≈ 1.69 µM)	0.25 (≈ 0.423 µM)	2 (≈ 3.38 µM)	1 (≈ 1.69 µM)	–	C[C@@H](NC(=O)Cn1cnnn1)[C@H]1C(=O)N2C(C(=O)O)=C(S[C@@H]3CN[C@H](C(=O)N4C[C@@H](O)[C@@H](NC(=N)N)C4)C3)[C@H](C)[C@H]12 [Example 546, (4R,5S,6R)-6-((R)-1-(2-(1H-tetrazol-1-yl)acetamido)ethyl)-3-((3S,5S)-5-((3S,4R)-3-guanidino-4-hydroxypyrrolidine-1-carbonyl)pyrrolidin-3-ylthio)-4-methyl-7-oxo-1-azabicyclo[3.2.0]hept-2-ene-2-carboxylic acid]
2 (≈ 3.75 µM)	0.25 (≈ 0.469 µM)	8 (≈ 15 µM)	–	1 (≈ 1.88 µM)	C[C@@H](NC(=O)Cn1cnnn1)[C@H]1C(=O)N2C(C(=O)O)=C(S[C@@H]3CN[C@H](C(=N)N4CC[C@@H](N)C4)C3)[C@H](C)[C@H]12 [Example 550]
1 (≈ 1.77 µM)	0.25 (≈ 0.444 µM)	2 (≈ 3.55 µM)	2 (≈ 3.55 µM)	–	C[C@@H](NC(=O)Cn1cnnn1)[C@H]1C(=O)N2C(C(=O)O)=C(S[C@@H]3CN[C@H](C(=O)N4CC[C@@H](N)[C@H](O)C4)C3)[C@H](C)[C@H]12 [Example 553, (4R,5S,6R)-6-((R)-1-(2-(1H-tetrazol-1-yl)acetamido)ethyl)-3-((3S,5S)-5-((3R,4R)-4-amino-3-hydroxypiperidine-1-carbonyl)pyrrolidin-3-ylthio)-4-methyl-7-oxo-1-azabicyclo[3.2.0]hept-2-ene-2-carboxylic acid]
